# Tests used:
# [1] = in vivo; cited from earlier work
# [2] = test system: non small cell lung cancer (NSCLC) brain metastases; settings: eight subjects with newly diagnosed, untreated NSCLC brain metastases; cited from earlier work
# [3] = test system: NSCLC adenocarcinoma; settings: first-line gefitinib, Asian, female, non-smokers; cited from earlier work
# [4] = test system: brain metastases from erbB-2 overexpressing, metastatic breast cancer; experiment: Clinical study of orally administered lapatinib, PET scan of brain lesions; assay type: in vivo, human; settings: one patient, 750 mg lapatinib twice daily, previously treated with trastuzumab
# From the text: Safety and efficacy assessments (independent review) were to be carried out at 2 and 4-week intervals respectively. PET scans were to be run at baseline, 1 week and 8 weeks and MRI at baseline, 8 weeks, and 16 weeks.
structure (smiles),measurement,setting,value
Cn1nnc2c(C(N)=O)ncn2c1=O [Temozolomide],crossing of the blood-brain barrier,[1],readily crosses the blood-brain barrier
COc1cc2ncnc(Nc3ccc(F)c(Cl)c3)c2cc1OCCCN1CCOCC1 [gefitinib],subjects with prolonged CNS partial responses,[2],Seven out of eight
same,partial response rate,[3],69%
same,systemic disease control rate,[3],80%
"CS(=O)(=O)CCNCc1ccc(-c2ccc3ncnc(Nc4ccc(OCc5cccc(F)c5)c(Cl)c4)c3c2)o1.Cc1ccc(S(=O)(=O)O)cc1 [lapatinib, N-{3-Chloro-4-[(3-fluorobenzyl)oxy]phenyl}-6-[5-({[2-(methanesulphonyl)ethyl]amino}methyl)-2-furyl]-4-quinazolinamine ditosylate monhydrate]",initial week 1 PET scan results (brain lesions),[4],promising activity with a dramatic change in one lesion while other brain lesions showed less change or no change at all

# From patent US20150283139A1, “CANCER TREATMENT METHOD” (SmithKline Beecham (Cork) Limited, priority 2004, published 2015)
